In brackets after ≈: the same amount, converted by molar mass. Several values for one entry are separate records, joined by “and”; a condition that tells them apart may be missing. Equal entries are not always repeated. Entries after “also recorded” stand apart in the source; their conditions may differ.
Key:
Assay type in all cases: physicochemical
[1] = Solubility in water and simulated fluids (FaSSIF, FaSSGF) at 37 °C; conditions: for Solubility / solubility at 24 h: 37 °C; for Solubility in FaSSIF: fasted state simulated intestinal fluid; for solubility at 24 h: thermodynamic from solid
Excerpt: The solids were slurried in the respective solution for 24 hrs then the liquid isolated by syringe filtration for analysis by HPLC. The data are summarized in Table 19; the solubility of all forms in all solutions is on the microgram scale. Essentially, none of these are substantially advantageous over the other ones in terms of equilibrium solubility.

[2] = Stability in high humidity (40 °C/75% RH, XRPD); conditions: one week
Procedure: Patterns α (L100142-37-5), β (L100142-1-1) and free flowing amorphous solid (L100142-19-1) SJB-01 were exposed to a 40° C./75% RH environment for one week.

[3] = Solid form stability at ambient conditions by XRPD; conditions: for Solid form stability: ambient conditions / room temperature, XRPD
[4] = Dynamic vapor sorption (DVS)
Procedure: Pattern β was analyzed using DVS with two sorption/desorption cycles. The solid reversibly picked-up about 0.12% between 2-95% relative humidity at 25° C.
Dynamic Vapor Sorption (DVS) was done using a DVS Intrinsic 1. The sample is loaded into a sample pan and suspended from a microbalance. A typical sample mass for DVS measurement is 25 mg. Nitrogen gas bubbled through distilled water provides the desired relative humidity. A typical measurement comprises the steps:
2. 50% to 2%. (50%, 40%, 30%, 20%, 10% and 2%)-Hold minimum of 5 mins and maximum of 60 minutes at each humidity. The pass criteria is less than 0.002% change.
3. 2% to 95% (2%, 10%, 20%, 30%, 40%, 50%, 60%, 70%, 80%, 90%, 95%)-Hold minimum of 5 mins and maximum of 60 minutes at each humidity. The pass criteria is less than 0.002% change.
4. 95% to 2% (95%, 80%, 70%, 60%, 50%, 40%, 30%, 20%, 10%, 2%)-Hold minimum of 5 mins and maximum of 60 minutes at each humidity. The pass criteria is less than 0.002% change.
5. 2% to 50% (2%, 10%, 20%, 30%, 40%, 50%)-Hold minimum of 5 mins and maximum of 60 minutes at each humidity. The pass criteria is less than 0.002% change.

[5] = Thermodynamic equilibrium aqueous solubility; conditions: pH 7.4
[6] = Solubility in vehicles/excipients for in vivo and toxicological studies; conditions: for Maximum single dose in solubilized form: dogs, 100% PEG 400, maximum volume 1-2 ml/kg; for Maximum dose in solubilized form, 100% PEG 400 / Maximum dose in solubilized form, Gelucire:PEG 400 90:10: rats; for Maximum dose in solubilized form, 100% PEG 400: 5 ml/kg is maximum volume dose; for Maximum dose in solubilized form, Gelucire:PEG 400 90:10: 10 ml/kg is maximum volume dose
Procedure: In addition, the solubility of SJB-01 was investigated in a large number of vehicles for use in in vivo pharmacological studies, as well as toxicological evaluation of the compound.
Formulations for toxicological evaluation of SJB-01 were considered. The highest solubility was obtained with 100% PEG 400 and a mixture of Gelucire and PEG 400. Since a formulation with Gelucire:PEG required increased handling time, including dosing at ˜45° C., 100% PEG 400 was chosen for formulation purpose in the early toxicological evaluation including mini-MTD (maximum tolerated dose) and a 14 days toxicological dosing study. The maximum dose reached was 140 mg/kg-the highest possible dose achievable with PEG 400 as vehicle. […] From a formulation perspective, this can only be done by using Gelucire:PEG as a vehicle, under the assumption that a solution will lead to a higher bioavailability than dosing the compound in a PEG 400 suspension. In the table below, the maximum dose of SJB-01 given on a solubilized form is provided, taking into account the tolerated dose of the vehicle as well.

[7] = Solubility in bio-relevant media
Procedure: The solubility of the beta polymorph form of SJB-01 was further examined in bio-relevant media. The fasted-state small intestinal fluid (FaSSIF) contained 3 mM sodium taurocholate (bile acid), 0.75 mM lecithin (phosphorlipid) and phosphate buffer to maintain a pH of 6.0. The fed-state small intestinal fluid (FeSSIF) contained 5-fold higher concentration of sodium taurocholate and lecithin and thus higher capacity for micellar solubilization of the compound. The pH in the FeSSIF buffer was maintained to 5.0 with acetate buffer.

[8] = Intrinsic Dissolution Rate (IDR); conditions: 0.001 M HCl pH 3.0; pressed tablet
Procedure: The Intrinsic Dissolution Rate (IDR) was calculated for a beta polymorph form of SJB-01. A tablet of the compound was pressed and put into a dissolution chamber. It was subsequently measured how fast the substance was dissolved from the surface into the solvent. Initially, the experiment was performed in a standard buffer (0.001 M HCl pH 3.0), reflecting the stomach conditions at fastened state.
Due to the high impact of bile components on solubilisation of SJB-01, IDR was performed in FeSSIF media, reflecting the fed-state in humans.

[9] = Solubility in buffered solutions vs pH at 37 °C (HPLC); conditions: aqueous buffers, aqueous buffer, thermodynamic from solid; about 37 °C; read-out: Solubility in buffered solution (range)
Procedure: Aqueous buffers between pH 1.3 and 7.4 (13 total) were prepared and 3 mL added to about 15 mg of SJB-01 (L100149-44-1, jet-milled). These slurries were stirred on a hot-plate at 37° C. for 24 hours. Sonication and vortexting was employed within the first 2 hours of stirring to ensure thorough mixing and wetting of the solids as there was a clear tendency for them to clump and float at the liquid surface. After sonication and vortexing there was substantial solids suspended in solution (slurry) along with the solids that floated on top. At 24 hours, the samples were collected by syringe filtration of about 2 mL of solution. The first 1 mL of solution that passed through the filter was discarded and the second 0.5-1 mL of solution was used for HPLC analysis. The samples were injected into HPLC without dilution.
SJB-01 (L100149-44-1) was weighed directly into volumetric flasks and filled to volume with ACN:water (6:4 vol.) to build a calibration curve. […] Details for the HPLC method used are given in Table 34; these follow the parameters used for previous dissolution study.

[10] = about 37 °C, listed as amorphous form
[11] = about 37 °C, listed as beta form

With `CCNn1c(C)c(C(=O)N[C@H](c2ccccc2)C2CC2)c2cccc(F)c2c1=O` [Amorphous, 2-ethylamino-8-fluoro-3-methyl-1-oxo-1,2-dihydro-isoquinoline-4-carboxylic acid ((S)-cyclopropyl-phenyl-methyl)-amide] as the molecule, how does the Solubility ([1]; FaSSGF, 24 hrs) read?
Its Solubility is 6 µg/mL (≈ 15.2 µM).

What about the Solubility ([1]; FaSSIF, 24 hrs) of the same molecule?
The Solubility was 18 µg/mL (≈ 45.7 µM).

What about the Solubility ([1]; Water, 24 hrs) of the same molecule?
The Solubility was 5 µg/mL (≈ 12.7 µM).

And the “Solubility in water and simulated fluids (range)” value [1, 10]?
The value was 5 to 18 µg/mL.

And the “Solubility in FaSSGF” value ([1]; fasted state simulated gastric fluid, about 37 °C, listed as amorphous form)?
The value was 6 µg/mL (≈ 15.2 µM).

And the “Solubility in FaSSIF” value [1, 10]?
The value was 18 µg/mL (≈ 45.7 µM).

And the Solubility in water ([1]; water, about 37 °C, listed as amorphous form)?
The Solubility in water was 5 µg/mL (≈ 12.7 µM).

What about the “Solid form by XRPD after humidity exposure” value ([2]; listed as amorphous solid) of the same molecule?
Its value is “converted considerably to Pattern β”.

What about the Solid form stability ([3]; listed as powdered amorphous freebase) of the same molecule?
The Solid form stability was “still showed an amorphous pattern”.

What about the “Time amorphous form remained stable” value ([3]; ambient environment) of the same molecule?
The value was “at least 17 days”.

What does the source list for `CCNn1c(C)c(C(=O)N[C@H](c2ccccc2)C2CC2)c2cccc(F)c2c1=O` [Pattern α, 2-ethylamino-8-fluoro-3-methyl-1-oxo-1,2-dihydro-isoquinoline-4-carboxylic acid ((S)-cyclopropyl-phenyl-methyl)-amide]?
Moisture pick-up by DVS ([4]; 2-95% relative humidity, 25 °C): about 0.6%; Solubility ([1]; FaSSGF, 24 hrs): 7 µg/mL (≈ 17.8 µM); solubility at 24 h ([1]; FaSSGF, fassgf or other biorelevant, fasted state simulated gastric fluid, about 37 °C, read-out: Solubility in FaSSGF): 7 µg/mL (≈ 17.8 µM); Solubility ([1]; FaSSIF, 24 hrs): 8 µg/mL (≈ 20.3 µM); Solubility in FaSSIF ([1]; about 37 °C, listed as alpha form): 8 µg/mL (≈ 20.3 µM); solubility at 24 h ([1]; water, water, water, about 37 °C, read-out: Solubility in water): 6 µg/mL (≈ 15.2 µM); solubility at 24 h ([1]; water, FaSSIF and FaSSGF, about 37 °C, read-out: Solubility in water and simulated fluids (range)): 6 to 8 µg/mL (≈ 15.2 to 20.3 µM); Solid form by XRPD after humidity exposure [2]: converted considerably to Pattern β; Solid form stability [3]: not stable; also recorded: less stable than Pattern β; solubility thermodynamic ([5]; aqueous medium, aqueous buffer, thermodynamic from solid): ~14 µg/mL (≈ 35.6 µM); Solubility in 100% PEG 400 [6]: 32 mg base/ml; Solubility in Gelucire:PEG 400 90:10 [6]: 40 mg base/ml; Maximum single dose in solubilized form ([6]; listed as α-form): 28 to 56 mg/kg; Maximum dose in solubilized form, 100% PEG 400 ([6]; listed as α-form): 140 mg/kg; Maximum dose in solubilized form, Gelucire:PEG 400 90:10 ([6]; listed as α-form): 360 mg/kg

Which Hygroscopicity ([4]; DVS, two sorption/desorption cycles) does the source give for `CCNn1c(C)c(C(=O)N[C@H](c2ccccc2)C2CC2)c2cccc(F)c2c1=O` [Pattern β, 2-ethylamino-8-fluoro-3-methyl-1-oxo-1,2-dihydro-isoquinoline-4-carboxylic acid ((S)-cyclopropyl-phenyl-methyl)-amide] here?
Its Hygroscopicity is “not hygroscopic”.

What about the solubility at 24 h ([1]; FaSSGF (fasted state simulated gastric fluid), fassgf or other biorelevant, FaSSGF, 24 hrs, read-out: Solubility) of the same molecule?
The solubility at 24 h was 6 µg/mL (≈ 15.2 µM).

And the Solubility ([1]; FaSSIF, 24 hrs)?
Its Solubility is 8 µg/mL (≈ 20.3 µM).

What about the “Solubility in water and simulated fluids (range)” value [1, 11] of the same molecule?
The value was 5 to 8 µg/mL and 6 to 10 µg/mL.

And the “Solubility in FaSSIF” value [1, 11]?
Its value is 8 µg/mL (≈ 20.3 µM).

And the solubility at 24 h ([1]; water, water, Water, 24 hrs, read-out: Solubility)?
The solubility at 24 h was 5 µg/mL (≈ 12.7 µM).

What about the “Solid form by XRPD after humidity exposure” value [2] of the same molecule?
The value was “remained unchanged”.

And the Solid form stability [3]?
The Solid form stability was “most stable polymorph”.

And the Thermodynamic equilibrium solubility [5]?
Its Thermodynamic equilibrium solubility is roughly 8 μg base/ml.

And the “Solubility in 100% PEG 400” value [6]?
The value was 22 mg base/ml.

What about the “Solubility in Gelucire:PEG 400 90:10” value [6] of the same molecule?
Its value is 26 mg base/ml.

What about the “Maximum single dose in solubilized form” value ([6]; listed as β-form) of the same molecule?
Its value is 20 to 40 mg/kg.

What about the “Maximum dose in solubilized form, 100% PEG 400” value ([6]; listed as β-form) of the same molecule?
The value was 100 mg/kg.

And the “Maximum dose in solubilized form, Gelucire:PEG 400 90:10” value ([6]; listed as β-form)?
The value was 230 mg/kg.

And the “Solubility in bio-relevant media” value ([7]; 0.001M HCl pH 3.0)?
Its value is 8 μg base/ml.

And the “Solubility in bio-relevant media” value ([7]; FaSSIF, pH 6.0)?
Its value is 11 μg base/ml.

What about the “Solubility in bio-relevant media” value ([7]; FeSSIF, pH 5.0) of the same molecule?
The value was 19 μg base/ml.

What about the “Intrinsic Dissolution Rate (IDR)” value [8] of the same molecule?
Its value is 0.002 mg/cm^2·min.

And the solubility at 24 h [9]?
The solubility at 24 h was 6.4 to 9.8 µg/mL (≈ 16.3 to 24.9 µM).
